Earlier results as cited in article PMC7463651, “Phase I/Ib Study of Tenalisib (RP6530), a Dual PI3K δ/γ Inhibitor in Patients with Relapsed/Refractory T-Cell Lymphoma” (Cancers, 2020).
Like-named read-outs stand apart in the source and are kept apart here.

System: PTCL/CTCL
Design: method as in PMID 21245435, PMID 28641053, PMID 26101246
Conditions: cited from earlier work

Compound: O=C(/C=C/c1cccc(S(=O)(=O)Nc2ccccc2)c1)NO [belinostat]
- Overall response rate (ORR) (FDA approved single agent): 26%

Compound: C#CCC(Cc1cnc2nc(N)nc(N)c2n1)c1ccc(C(=O)N[C@@H](CCC(=O)O)C(=O)O)cc1 (stereo partly shown) [pralatrexate]
- Overall response rate (ORR) (FDA approved single agent): 29%

Compound: C/C=C1\NC(=O)[C@H]2CSSCC/C=C/[C@H](CC(=O)N[C@H](C(C)C)C(=O)N2)OC(=O)[C@H](C(C)C)NC1=O [romidepsin]
- Overall response rate (ORR) (FDA approved single agent): 25%

Compound: brentuximab vedotin
- Overall response rate (ORR) (in CD30+ T-cells): 68%
